Laboratory results published in PubChem BioAssay AID720512 (Broad Institute, 2013).
Calls of active or inactive are those of the source. No rule for the calls is given here.

Molecular target: Toxin B (TcdB) glycohydrolase, Clostridioides difficile 630
Assay: TcdB glycohydrolase inhibitors, dose response, biochemical, cherry-pick, plate reader (AID 720512)
Details: recombinant TcdB glycohydrolase activity; for activity change, negative = inhibition: at 19.5 µM (top of the series)

| Compound | activity change, negative = inhibition | AC50 |
| --- | --- | --- |
| Nc1ncnc2[nH]c(=S)[nH]c12 | inactive | – |
| COc1ccc(NC(=O)Nc2nc(C)cc(C)n2)c(OC)c1 | inactive | – |
| FC(F)(F)c1cc(Cl)c2nc(-c3ccccc3)c(Cc3ccsc3)n2c1 | inactive | – |
| O=C(O)C1CCC(CN(Cc2cccc(Br)c2)C(=S)Nc2ccccc2F)CC1 (centres undefined) | inactive | – |
| O=C(Nc1ccc(O)cc1)/C(=C/c1ccco1)NC(=O)c1ccccc1 | inactive | – |
| O=C(C[C@H]1C[C@H]2c3cc(NC(=O)c4ccc5c(c4)OCO5)ccc3O[C@H]2[C@@H](CO)O1)NCc1cccc(F)c1 | inactive | – |
| COc1cc(C(=O)Nc2scc(-c3ccccc3)c2C(=O)O)cc(OC)c1OC | inactive | – |
| O=C(Nc1ccc(N2CCOCC2)c(Cl)c1)c1ccc(F)cc1 | inactive | – |
| CN(C)CCNC(=O)c1cc2c(s1)-c1ccc(Cl)cc1SC2 | – | > 39 µM (inactive) |
| COc1ccc(-c2ccc3c(c2)[C@H]2[C@H](CCN2C(=O)Cc2cccnc2)[C@@H](CO)N3C)cc1 | inactive | – |
| COc1ccc(C(=O)N2CCOCC2)cc1S(=O)(=O)N1CCCc2ccccc21 | inactive | – |
| Oc1ccc(/C=N/N2CCN(c3ccccn3)CC2)cc1 | – | > 39 µM (inactive) |
| Cc1ccc(C2=NS(=O)(=O)N(C)C(C(=O)NCc3ccc4c(c3)OCO4)=C2)cc1 | inactive | – |
| Cc1ccccc1C(C(=O)NC1CCCCC1)N(C(=O)c1ccccn1)c1cccnc1 (centres undefined) | inactive | – |
| Cc1cc(C)c(S(=O)(=O)N2CCCCC2C(=O)O)c(C)c1 (centres undefined) | inactive | – |
| COc1ccc(/C=C2\CCCCC2=O)cc1 | inactive | – |
| NC(=O)c1ccc2c(=O)c(O)c(-c3cc(Cl)c(N)c(Cl)c3)[nH]c2c1 | inactive | – |
| CCOCC(=O)Nc1cc(Cl)ccc1C | inactive | – |
| COc1ccc(C(=O)Nc2ccc3c(c2)C(=O)N(C)[C@@H]2CC[C@H](CC(=O)NCC4CC4)O[C@H]2CO3)cc1 | inactive | – |
| CC(=O)Nc1ccc(NC(=O)Cc2ccc(S(=O)(=O)N3CCCCC3)cc2)cc1 | inactive | – |
| Cn1c(=O)c2[nH]c(=S)n(Cc3ccccc3)c2n(C)c1=O | – | 18.2 µM |
| Cc1cc(NC(=O)CCCN2C(=O)c3cccc4cccc(c34)C2=O)no1 | inactive | – |
| CCCNC(=O)C[C@H]1CC[C@@H]2[C@H](COc3ccc(NC(=O)c4ccc(Cl)cc4)cc3C(=O)N2C)O1 | – | > 39 µM (inactive) |
| O=C(O)c1c(C(=O)O)c(-c2ccc(Br)cc2)n2c1CSC2 | inactive | – |

| Compound | activity change, negative = inhibition | AC50 |
| --- | --- | --- |
| Cc1scc(C(=O)N2CCN(c3ccc(Cl)cc3)CC2)c1C | inactive | – |
| COc1cc2c(cc1O)CC[n+]1cc3c(OC)c(OC)ccc3cc1-2 | – | > 39 µM (inactive) |
| CCCCNC(=O)C1CCN(S(=O)(=O)c2c(C)noc2/C=C\c2ccc(OC)cc2)CC1 | inactive | – |
| COc1ccc(C2=NS(=O)(=O)N(C)C(C(=O)NCc3ccccc3)=C2)cc1OC | inactive | – |
| COc1ccc(S(=O)(=O)N2CCC[C@H]2C(=O)N2CCC[C@H]2C(=O)NCc2ccncc2)cc1C | inactive | – |
| Cc1ccn(CCC(=O)NC2CC(C)(C)Cc3c2cnn3-c2ccccc2C)n1 (centres undefined) | inactive | – |
| CCOc1ccc2ccccc2c1/C=N/NC(=O)c1ccncc1 | inactive | – |
| COc1ccccc1-n1c(SCC(=O)O)nc2c(sc(=S)n2-c2ccc(Cl)c(C)c2)c1=O | inactive | – |
| C=CCn1c(C)cc(C(=O)COC(=O)CCc2cc(OC)c(OC)c(OC)c2)c1C | inactive | – |
| Cc1cc(N2CCCC2=O)cc(C)c1S(=O)(=O)Nc1c(C)nn(C)c1C | inactive | – |
| C=CCNS(=O)(=O)c1nc(C)c(Cl)c(C)c1C#N | inactive | – |
| CC(C)Cc1[nH]c(=O)c(C#N)c2c1CCCC2 | inactive | – |
| CCc1cc(/C(Cc2ccccn2)=N\O)c(O)cc1O | inactive | – |
| Cc1cccc(-c2n[nH]c(=S)n2/N=C/C=C/c2ccco2)c1 | inactive | – |
| O=C1CCCC2=C1Sc1ccccc1N2 | inactive | – |
| CC(C)C12NC(=O)NC(=O)N1CCS2 (centres undefined) | inactive | – |
| CCOc1ccc(NC(=O)c2ccc(CC)s2)c([N+](=O)[O-])c1 | inactive | – |
| Cn1c(=O)[nH]c(=O)c2c1[nH]c(=S)n2Cc1ccccc1 | inactive | – |
| Fc1cccc(NC(=S)NNc2c3ccccc3nc3ccccc23)c1 | inactive | – |
| CCNC(=O)[C@H]1[C@H](CO)[C@H]2Cn3c(ccc(-c4ccccc4)c3=O)[C@H]2N1CC | inactive | – |
| CC1(C)CC(=O)C(C=Nc2ccc(N)cc2)=C(O)C1 | inactive | – |
| Cc1cc(C)nc(NC(N)=NCCc2ccccc2)n1 | inactive | – |
| CCOC(=O)c1cccc(NC(=O)CCNS(=O)(=O)c2cccc3nonc23)c1 | inactive | – |
| Cn1c(-c2ccc(F)c(F)c2)cc2onc(-c3ccccc3)c2c1=O | inactive | – |

| Compound | activity change, negative = inhibition | AC50 |
| --- | --- | --- |
| O=C(NC(=S)Nc1ccc(O)cc1)c1ccccc1Cl | inactive | – |
| CNC(=O)C1CCN(S(=O)(=O)c2c(C)noc2/C=C/c2cccc(OC)c2)CC1 | inactive | – |
| COc1ccc(C(=O)Nc2c(-c3cccs3)c(=O)c3ccccc3n2C)cc1 | inactive | – |
| O=C1Nc2ccccc2C1c1ncc(C(F)(F)F)cc1Cl (centres undefined) | inactive | – |
| Fc1ccc(-c2nc3ccc(Br)cn3c2Cc2ccccc2)cc1 | inactive | – |
| Cc1ccc(NNC(=O)c2ccno2)cc1C | inactive | – |
| O=c1c2ccccc2oc2ccc(NCCCN3CCOCC3)cc12 | inactive | – |
| Cc1ccc(/C=C/c2onc(C)c2S(=O)(=O)N2CCC(C(=O)N3CCN(C)CC3)CC2)cc1 | inactive | – |
| Cc1ccc(/C=C/c2onc(C)c2S(=O)(=O)N2CCC(C(=O)NC(C)(C)C)CC2)cc1 | inactive | – |
| Cc1ccc(NS(=O)(=O)c2ccc(C)c(NC(=S)NCCN3CCOCC3)c2)c(C)c1 | inactive | – |
| CCN(CC)S(=O)(=O)c1cc(C(=O)Nc2cccnc2Cl)ccc1Cl | inactive | – |
| S=c1nc(-c2cccc(Cl)c2)[nH][nH]1 | inactive | – |
| Nc1ccccc1-c1nc2ccncc2[nH]1 | inactive | – |
| CCN1CCN(c2oc(-c3ccccc3C)nc2S(=O)(=O)c2ccccc2)CC1 | inactive | – |
| O=S(=O)(c1ccccc1)N1CCN=C1SCc1ccccc1 | inactive | – |
| C[C@@H]1C=C[C@](Cc2ccccc2)(C(=O)NCC2CC2)N1C(=O)c1ccccc1 | inactive | – |
| CC1=NCCc2c1[nH]c1cc(O)ccc21 | – | 9.94 µM |
| COc1ccc(-c2cn3cc(C)ccc3n2)cc1F | inactive | – |
| CCCCn1c(N)c(N(CCOC)C(=O)CSc2nnc(-c3ccco3)n2CC)c(=O)[nH]c1=O | inactive | – |
| COc1cccc(C(=O)COC(=O)c2ccc(NC(=O)c3ccccc3)cc2)c1 | inactive | – |
| O=C(Nc1ccc(N2CCOCC2)c(Cl)c1)c1ccc(Cl)cc1 | – | > 39 µM (inactive) |
| COCCNc1oc(/C=C/c2ccccc2)nc1C#N | inactive | – |
| CN(C)CCNc1ccc(CO)c2sc3ccc(O)cc3c(=O)c12 | inactive | – |
| O=C(COc1ncnc2ccccc12)NCCc1ccc(F)cc1 | inactive | – |

| Compound | activity change, negative = inhibition | AC50 |
| --- | --- | --- |
| Cc1c(Cl)cccc1NC(=O)C1Cc2ccccc2CN1C(=O)c1ccccc1 (centres undefined) | inactive | – |
| Cc1nn(CCOc2ccccc2)c(=O)n1-c1ccc(Cl)cc1 | inactive | – |
| Nc1ccc(Sc2ccc(N)cc2)cc1 | inactive | – |
| COc1cc(/C=N/NC(=O)c2nnn(-c3nonc3N)c2C(C)C)ccc1O | inactive | – |
| CC12CCC(=O)N1C(C(=O)OCc1c(Cl)cccc1Cl)CS2 (centres undefined) | inactive | – |
| CCN(CC)CCCCN1c2ccccc2Sc2ccccc21 | – | > 39 µM (inactive) |
| COc1ccc(C2=NS(=O)(=O)N(C)C(C(=O)N(C)Cc3ccccc3)=C2)cc1OC | inactive | – |
| O=C(Nc1nnc(-c2ccco2)o1)C1CC1 | inactive | – |
| Cn1c(SCC(=O)c2cc3ccccc3o2)nnc1-c1ccccc1 | inactive | – |
| O=C(NCCc1ccc(Cl)cc1)C1CCN(S(=O)(=O)c2ccc(Br)s2)CC1 | inactive | – |
| Cc1c(-n2c(O)c(C3=c4ccccc4=NC3=O)sc2=S)c(=O)n(-c2ccccc2)n1C | inactive | – |
| CCOC(=O)C(=O)NNc1ccc(Cl)cc1 | inactive | – |
| CC(=O)Nc1cccc(NC(=O)c2ccc(Br)cc2)c1 | inactive | – |
| CC(C)NC(=O)N1CC[C@@H]2[C@H]1c1cc(-c3ccc(F)cc3)ccc1N(C)[C@H]2CO | inactive | – |
| CC1(C)Cc2c(sc3ncn4c(=S)[nH]nc4c23)CO1 | – | > 39 µM (inactive) |
| O=C(COC(=O)c1ccc(F)cc1F)c1ccc[nH]1 | inactive | – |
| COc1cccc(Oc2ccc3nnc(C(F)(F)F)n3n2)c1 | inactive | – |
| Cc1cccc(/C=C/c2onc(C)c2S(=O)(=O)N2CCC(C(=O)N3CCC(C)CC3)CC2)c1 | inactive | – |
| CC(OC(=O)C1=COCCO1)C(=O)c1ccc(Br)cc1 (centres undefined) | inactive | – |
| Cc1ccc2nc(-c3ccc4c(c3)OCCO4)cn2c1 | – | > 39 µM (inactive) |
| O=C(Nc1ccc(N2CCOCC2)c(Cl)c1)c1ccc2c(c1)OCCO2 | inactive | – |
| Nc1nc(Cl)cc(NCCc2ccc(O)cc2)n1 | inactive | – |
